One data set has as its system hApoA-I transgenic mice. Nature of the data set: hApoA-I transgenic mice, oral gavage for 14 days. The format is in vivo. As to conditions: for change in vivo at 10 mg/kg / change in vivo at 30 mg/kg: Mus musculus, po, 336 h, relative to pretreatment, read-out: ApoA-I (% change); for change in vivo at 10 mg/kg: 10 mg/kg BID 14 days; for change in vivo at 30 mg/kg: 30 mg/kg BID 14 days. An excerpt:
To test whether the efficacy of compounds of the invention observed in vitro extended to an in vivo model, transgenic mice carrying multiple copies of the human ApoA-I gene (C57BI/6-tgn(apoa1)1 rub, Jackson Laboratory, Bar Harbor, Me.) were exposed to representative compounds of the invention. The exogenous human ApoA-I gene in these mice enables them to express the human ApoA-I protein under the control of this promoter.
Seven to eight week old male mice, transgenic for human ApoA-I were housed five per cage (10″×20″×8″ with aspen chip bedding) with pelleted Rodent chow [Purina 5001] and water available at all times. After an acclimation period of 1 week, animals were individually identified by numbering on tail and weighed. Mice were pre bled via the retro-orbital plexus, and 150 μl of blood was collected in 1.5 ml Eppendorf tube containing 1 μl of heparin and chilled on ice. Plasma was collected after centrifuging the whole blood at 14000 rpm [TOMY high speed micro-refrigerated centrifuge NTX-150] for 10 minutes at 4° C. and frozen at −80° C. Plasma was analyzed for: human ApoA-I by a human ApoA-I enzyme-linked Immunoassay [Direct Sandwich ELISA Calbiochem Cat#178422, Calbiochem Cat#178452, lot #B9076, Calbiochem Cat #178470 conjugated to Horse Radish Peroxidase (Cedarlane Cat#80220)]; total cholesterol [Ponte scientific reagents: # C7509-STD, #L7580-18, # C7510]; and triglyceride [Pointe Scientific Reagents: # 7532-STD, # L7580-18, #7532]. All samples were measured in triplicates and expressed as mg/dl. Mice were grouped based on the above plasma parameters and having an average body weight of 25 gm.
Two days following pre-bleed, mice were dosed by oral gavage daily for 14 days using a 20 gauge, 11/2″ curved disposable feeding needle [Popper & Sons]; when BID, mice were gavaged morning and afternoon (8 am and 5 pm); when SID mice were gavaged in morning (8 am). Compounds were prepared each day in vehicle. Test article(s), a positive control fenofibrate, and vehicle were dosed at volume of 5 mL/kg of body weight as a suspension (0.1 mL/20 g mouse). Fenofibrate was obtained commercially [SIGMA #F 6020]. Mice weights were recorded on day 1, 4, 7, 10, 12, and 15. On day 15, mice were weighed and fasted for 4 hours, sacrificed by inhalation of CO2 and blood was obtained via cardiac puncture (0.7-1.0 ml). Plasma was collected and frozen at −80° C. Samples were assayed for ApoA-I, total cholesterol, triglyceride and HDL-C by HPLC [Polaris 200 with an auto sampler Prostar 410 from Varian on a Superose 6 10/30 column from Amersham]. Samples were sent for NMR analysis [LipoScience] to identify particle size and subclass for lipoproteins. During necropsy, liver, brown fat, and the whole of small and large intestines were collected, cleaned with cold PBS and frozen at −80° C. for further analysis of compound levels. Variation between studies, in ApoA-I changes, was observed. Therefore, a relative comparison between individual(s) in the study groups was used.
4′-hydroxyflavone (10 mg/kg of body weight), 4-(4-oxo-4H-chromen-2-yl)phenyl nicotinate (Example 71) (10 mg/kg of body weight) and fenofibrate (100 mg/kg of body weight) were BID administered to hApoA-I transgenic mice daily for fourteen days by oral gavage in 0.5% Methylcellulose (w/v)/1% Tween 80 (w/v). Plasma was assayed for ApoA-I (FIG. 3A), HDL cholesterol and total cholesterol (FIG. 3B) and percent weight gain (FIG. 3C).
4′-hydroxyflavone (3 mg/kg of body weight), 4′-hydroxyflavone (10 mg/kg of body weight), 4′-hydroxyflavone (30 mg/kg of body weight), 2-(4-Hydroxy-phenyl)-pyrano[2,3-b]pyridin-4-one (10 mg/kg of body weight), and fenofibrate (100 mg/kg of body weight) were BID administered to hApoA-I transgenic mice daily for fourteen days by oral gavage in 0.5% methylcellulose (w/v)/1% Tween 80 (w/v). In this experiment plasma was assayed for ApoA-I. […]

A further data set relates to human ApoA-I promoter. Briefly: ApoA-I promoter induction in Caco-2 intestinal cells (pAI.474-Luc luciferase reporter). It is filed as cell-based. The settings on record: Caco-2 cells, 15 μM, 48 hours incubation, luciferase activity vs control samples. The procedure:
To examine the effects of compounds of the invention to increase ApoA-I expression, Caco-2 cells, an intestinal cell line derived from human epithelial intestinal cells, were grown under conditions recommended by the ATCC and summarized in United States Patent Application Publication No. 20040033480 (“Wong”), incorporated herein by reference.
Briefly, the promoter region of the gene encoding human ApoA-I was isolated and ligated upstream of the firefly luciferase gene to construct the reporter plasmid pAI.474-Luc. This reporter plasmid and pRSV-β-galactosidase (as a control for transfection efficiency) were co-transfected to Caco-2 cells. The Caco-2 cells were then incubated in a MEM selection media containing 20% fetal calf serum supplemented with G418 (final concentration: 0.5 mg/mL, Gibco) to give established strains that stably express from the reporter gene. The strains were seeded in 6-well culture plates and incubated for 48 hours at 37° C. under 5% carbon dioxide. Cells were starved for 24 hrs in MEM selection media containing 0.5% FBS. Then, a solution of a compound of the invention in DMSO or other appropriate solvent was added to the wells at a final concentration of 0 to 100 μM in MEM selection media containing 0.5% FBS.
After further incubation for 48 hours, the cells were harvested and lysed using Reporter Lysis Buffer (PROMEGA E3971), and 50 μL of luciferase assay reagent (PROMEGA E4550 Luciferase Reporter 1000 assay system) was added to measure luciferase activity with a luminometer (Fluoroskan Ascent FL from Thermo electron Corporation). Luciferase activity was normalized to lysate protein concentrations, measured using Bradford Reagent (BioRad Protein Assay reagent Cat #500-0006). The luciferase activity of cells treated with various concentrations of test compounds was compared to that of solvent control sample (i.e., solvent without any compound of the present invention added) and untreated control sample.

The nature of the next data set: Caco-2 permeability. It is filed as in vitro ADME, human. The settings on record: human. An excerpt: The Caco-2 cell drug transport model is widely used for screening compounds in drug discovery to assess intestinal transport and predict absorption rates.
For orientation: Caco-2 cells form a polarised layer with tight junctions and transporters.

Where [1] appears, read: in vitro Caco-2 intestinal transport model, read-out: % Transported Paap.
[2] abbreviates: Table 6 fourth group, Control 3 1.11.

Where two headings read alike, the source gives them in different places.

Usually melting point stands for the temperature of the solid-liquid transition.

With `O=c1cc(-c2ccc(O)cc2)oc2ncccc12` [2-(4-hydroxy-phenyl)-pyrano[2,3-b]pyridin-4-one], the “plasma ApoA-I, net % change over vehicle” value with hApoA-I transgenic mice (Experiment B, 10 mpk BID oral gavage, two weeks) was 3.75%.

As to `O=c1cc(-c2ccccc2)oc2cc(O)cc(O)c12` [5,7-Dihydroxy-2-phenyl-4H-chromen-4-one, 5,7-Dihydroxy-2-phenyl-chromen-4-one, reference compound], the “ApoA-I Promoter Induction” value in the data set with human ApoA-I promoter was “increased”. Besides, in “Caco-2 permeability” (setting [1]), the Papp was determined as 0.122 ×10⁻⁶ cm/s.

As to `O=c1cc(-c2ccc(O)cc2)oc2cc(O)cc(O)c12` [5,7-dihydroxy-2-(4-hydroxyphenyl)-4H-chomen-4-one, reference compound], the Papp in “Caco-2 permeability” (setting [1]) is 1.5 ×10⁻⁶ cm/s.

In the case of `COc1ccc2c(=O)cc(-c3ccc(O)cc3)oc2c1` [7-methoxy-2-(4-hydroxyphenyl)-4H-chromen-4-one, reference compound], the Papp in “Caco-2 permeability” (setting [1]) is 6.92 ×10⁻⁶ cm/s.

`O=c1cc(-c2cc(F)c(O)c(F)c2)oc2ccccc12` [Example 6, 2-(3,5-difluoro-4-hydroxyphenyl)chromen-4-one] had a melting point of 275 to 276 °C. The compound also yielded a Papp in “Caco-2 permeability” (Caco-2) of 0.531 ×10⁻⁶ cm/s.

For `O=c1cc(-c2ccc(O)cc2)oc2cccnc12` [Example 35, 2-(4-hydroxy-phenyl)-pyrano[3,2-b]pyridin-4-one], the “ApoA-I Promoter Induction” value with human ApoA-I promoter is recorded as “increase”. Also, the Papp in “Caco-2 permeability” (Caco-2) is 1.98 ×10⁻⁶ cm/s.

For the compound `O=c1cc(-c2ccc(O)cc2)oc2cnccc12` [Example 36, 2-(4-Hydroxyphenyl)pyrano[2,3-c]pyridin-4-one], the melting point was in the range of 294 to 296 °C. In the data set with human ApoA-I promoter, the “ApoA-I Promoter Induction” value was “increased”. Moreover, in the data set on hApoA-I transgenic mice (setting [2]), the change in vivo at 10 mg/kg was determined as 17%.

The compound `O=c1cc(-c2ccc(O)nc2)oc2ccccc12` [Example 48, 2-(6-Hydroxypyridin-3-yl)-chromen-4-one] gave a melting point of 296 to 297 °C. Besides, in the data set with human ApoA-I promoter, the “ApoA-I Promoter Induction” value is listed as “no increase”. In addition, the change in vivo at 10 mg/kg in the data set with hApoA-I transgenic mice (setting [2]) came out at 4.94%.

Regarding `O=c1cc(-c2ccc(O)cc2)[nH]c2ccccc12` [Example 51, 2-(4-Hydroxy-phenyl)-1H-quinolin-4-one], the “ApoA-I Promoter Induction” value in the data set with human ApoA-I promoter is on record as “no increase”. In addition, in the data set with hApoA-I transgenic mice (Table 6 third group, Control 3 (F-101) (6.32)), the change in vivo at 10 mg/kg was 32.8%.

For `Cn1c(-c2ccc(O)c(F)c2)cc2ncccc2c1=O` [Example 56, 7-(3-Fluoro-4-hydroxyphenyl)-6-methyl-1,6-naphthyridin-5(6H)-one], the melting point lay within 182 to 184 °C. Moreover, in the data set with human ApoA-I promoter, the “ApoA-I Promoter Induction” value was “no increase”.

On to `COc1cccc2c(=O)[nH]c(-c3ccc(O)c(F)c3)cc12` [Example 59, 3-(3-Fluoro-4-hydroxyphenyl)-5-methoxyisoguinolin-1(2H)-one], for which the melting point is 289 to 291 °C. Also, the “ApoA-I Promoter Induction” value in the data set on human ApoA-I promoter is “increased”.

In turn, `O=c1nc(-c2ccc(O)cc2)oc2ccccc12` [Example 67, 2-(4-Hydroxyphenyl)benzo[e][1,3]oxazin-4-one] came in with a melting point of 273 to 275 °C. Moreover, the “ApoA-I Promoter Induction” value in the data set on human ApoA-I promoter is on record as “increased”.

Take `CC(=O)Oc1ccc(C2=CC(C)(C)c3ccccc3O2)cc1` [Example 69, 4-(4,4-Dimethyl-4H-chromen-2-yl)phenyl acetate]: the melting point was in the range of 84 to 86 °C. Further, the “ApoA-I Promoter Induction” value with human ApoA-I promoter is given as “increased”.

Compound `Oc1ccc(C2=COc3ccccc3O2)cc1` [Example 70, 4-(Benzo[b][1,4]dioxin-2-yl)phenol] returned a melting point of 137 to 140 °C. In the data set on human ApoA-I promoter, the “ApoA-I Promoter Induction” value is listed as “increased”.

In the case of `CC(=O)Oc1ccc(-c2cc(=O)c3ccccc3o2)cc1` [Example 72, 4-(4-oxo-4H-chromen-2-yl)phenyl acetate], the “ApoA-I Promoter Induction” value with human ApoA-I promoter is listed as “increased”. This compound also came in with a Papp in “Caco-2 permeability” (Caco-2) of 2.65 ×10⁻⁶ cm/s.

Compound `CC(=O)Oc1ccc(-c2cc(=O)c3cccnc3o2)cc1` [Example 75, 4-(4-Oxo-4H-pyrano[2,3-b]pyridine-2-yl)phenyl acetate] returned a melting point of 167 to 169 °C. For the same compound, the “ApoA-I Promoter Induction” value with human ApoA-I promoter is listed as “increased”.

For the compound `CC(=O)Oc1ccc(C2=COc3ccccc3O2)cc1` [Example 77, 4-(Benzo[b][1,4]dioxin-2-yl)phenyl acetate], the melting point lay in the range of 123 to 125 °C. In addition, in the data set on human ApoA-I promoter, the “ApoA-I Promoter Induction” value is “increased”.

Consider `O=c1cc(-c2ccc([N+](=O)[O-])cc2)oc2ncccc12` [Example 80, 2-(4-Nitrophenyl)-4H-pyrano[2,3-b]pyridine-4-one], for which the melting point lay in the range of 261 to 263 °C. In addition, the “ApoA-I Promoter Induction” value in the data set on human ApoA-I promoter is “no increase”.

`O=c1c(-c2ccc(O)cc2)coc2ccccc12` [Example 84, 3-(4-Hydroxyphenyl)-4H-chromen-4-one] came in with a melting point of 237 to 238 °C. Also, in the data set with human ApoA-I promoter, the “ApoA-I Promoter Induction” value is on record as “increased”.

`O=c1c(-c2ccc(O)cc2)coc2ncccc12` [Example 85, 3-(4-Hydroxyphenyl)-4H-pyrano[2,3-b]pyridine-4-one] showed a melting point of 262 to 264 °C. The “ApoA-I Promoter Induction” value in the data set with human ApoA-I promoter is given as “increased”.

For the compound `CC(C)OC(=O)C(C)(C)Oc1ccc(C(=O)c2ccc(Cl)cc2)cc1` [fenofibrate, reference compound], in the data set with hApoA-I transgenic mice (Experiment A, 100 mg/kg BID, day 15, male mice), the “liver weight gain normalized to body weight, compared to vehicle” value was “significant increase”. In addition, the change in vivo at 30 mg/kg amounted to 68.9% in the data set with hApoA-I transgenic mice (setting [2]); 127% with hApoA-I transgenic mice (Table 6 second group, Control 1 3.42); 74.4% with hApoA-I transgenic mice (Table 6 third group, Control 3 (6.32)).

The record behind these values is patent US8093273B2, “Flavanoids and isoflavanoids for the prevention and treatment of cardiovascular diseases” (Resverlogix Corp., priority 2004, dated 2012).
